Data published in patent publication US6833372B2, “Non-peptide GnRH agents, Pharmaceutical compositions, and methods for their use” (Pfizer, Inc., priority 2002, dated 2004).
≈ marks a conversion by molar mass, not a printed value. Where two headings read alike, the source gives them in different places.

How the values were obtained:
human GnRH receptors = biological target: T1, human GnRH receptors (Homo sapiens, UniProt P30968); assay: Radioligand binding: inhibition of 125I-GnRH-A binding to human GnRH receptor membranes; conditions: HEK 293 cell membranes
T1 construct: expressed in transfected cells; host or cells: HEK 293 cells, stably transfected; membranes
T1 sequence (P30968 1-328): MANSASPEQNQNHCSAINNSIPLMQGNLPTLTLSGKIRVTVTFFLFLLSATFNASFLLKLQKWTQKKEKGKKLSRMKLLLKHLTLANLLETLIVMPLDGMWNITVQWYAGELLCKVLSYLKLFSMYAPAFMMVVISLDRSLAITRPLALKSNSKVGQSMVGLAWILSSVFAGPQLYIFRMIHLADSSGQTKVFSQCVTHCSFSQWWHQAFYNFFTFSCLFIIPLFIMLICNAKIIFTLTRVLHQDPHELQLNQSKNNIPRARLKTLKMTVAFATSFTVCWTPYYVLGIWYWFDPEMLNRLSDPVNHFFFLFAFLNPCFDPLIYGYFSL
Outline: (§1)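 Membranes from rat pituitaries, or HEK 293 cells stably expressing mouse or human receptor, incubated 1 hour at room temperature with ~0.04-0.06 nM radioligand (HEPES pH 7.4, EDTA, MgCl2, BSA) and competitor at 0.1-10,000 nM. Bound ligand collected by GF/C filtration and counted; Ki derived from IC50 by Cheng-Prusoff.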

mouse GnRH receptors = biological target: T2, mouse GnRH receptors (Mus musculus, UniProt Q01776); assay: Radioligand binding: inhibition of 125I-GnRH-A binding to mouse GnRH receptor membranes; conditions: HEK 293 cell membranes
T2 construct: expressed in transfected cells; host or cells: HEK 293 cells, stably transfected; membranes
T2 sequence (Q01776 1-327): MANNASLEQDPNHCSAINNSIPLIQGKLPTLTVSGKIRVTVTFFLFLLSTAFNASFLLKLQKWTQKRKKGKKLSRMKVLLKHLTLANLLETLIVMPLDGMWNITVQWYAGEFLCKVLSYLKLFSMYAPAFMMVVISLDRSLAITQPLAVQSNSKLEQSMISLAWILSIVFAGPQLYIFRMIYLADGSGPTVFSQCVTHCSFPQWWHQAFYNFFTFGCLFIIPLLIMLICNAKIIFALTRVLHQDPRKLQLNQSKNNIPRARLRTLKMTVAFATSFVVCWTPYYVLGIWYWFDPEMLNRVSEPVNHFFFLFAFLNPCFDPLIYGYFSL
Method: HEK 293 cells stably transfected with mouse or human GnRH receptors as described above were grown in Dulbecco's high-glucose, modified Eagle's medium (DMEM) supplemented with 0.2% G418, 10% fetal bovine serum (FBS) and 100 U/mL penicillin/streptomycin. GH3 cells stably transfected with the rat GnRH receptor (GGH3) were provided by Dr. William Chin (Harvard Medical School, Boston, Mass.). These cells have been extensively characterized previously (Kaiser et al., 1997). The cells were grown in low glucose DMEM containing: 100U/mL penicillin/streptomycin, 0.6% G418 and 10% heat-inactivated FBS.
HEK 293 cells containing mouse or human receptors, or rat pituitaries (Pel Freez Biologicals, Rogers, Ark.) were homogenized in buffer A containing: 50 mM Tris (pH 7.4), 0.32 M sucrose, 2 mM EGTA, 1 mM PMSF, 5 μg/ml aprotinen, 5 μg/ml Pepstatin A, and 1 μg/ml leupeptin. Homogenized cells were centrifuged at 4° C. at 20,000×g for 25 minutes, re-suspended in buffer A and re-centrifuged at 4° C. at 20,000×g for an additional 25 minutes. Total membrane protein was determined with a BCA kit (Pierce, Rockford, Ill.). Membranes were stored at −70° C. at a final membrane protein concentration of approximately 5 mg/ml.
The radioiodinated agonist analog of GnRH, [des-Gly^10,D-Ala^6]GnRH ethylamide (^125I-GnRH-A), was used as the radioligand. […] The reaction mixture was vortexed and incubated for 1 minute at room temperature. After one minute, the mixture was vortexed and allowed to incubate for an additional minute. 2 ml of 0.5 M acetic acid/1% BSA was added to the reaction tube and the mixture was added to a C18 Sep-Pak cartridge. The cartridge was washed with subsequent washes of 5 ml H2O and 5 ml 0.5 M acetic acid and then eluted with 5×1 ml of 60% CH3CN/40% 0.5 M acetic acid. The eluate was diluted with 3× volume of HPLC buffer A (0.1% TFA in H2O) and loaded onto a C18 column. The iodinated product was eluted over 20-25 min with a gradient of 25-100% CH3CN containing 0.1% TFA. The radioactive fractions (750 μl/fraction) were collected into clean polypropylene tubes containing 100 μl of 10% BSA. Fractions were assessed for biological activity by radioligand binding. Specific activity of the radioligand was approximately 2200 Ci/mmol.
Membranes were diluted to 0.01-0.5 mg/ml (depending upon the species of receptor) with assay buffer containing 50 mM HEPES (pH 7.4), 1 mM EDTA, 2.5 mM MgCl2, and 0.1% BSA. Membranes (diluted to utilize similar receptor numbers between assays) were incubated with approximately 0.04-0.06 nM ^125I-GnRH-A in the presence or absence of competing agents (0.1-10,000 nM) in a total volume of 200 μl in 96-well polypropylene plates for 1 hour at room temperature. Assays were stopped by rapid filtration onto 96-well GF/C filters soaked in 0.1% polyethylenimine (PEI) utilizing a Packard 96-well cell harvester. Filters were washed three times with ice-cold PBS (50 mM NaPO4, 0.9% NaCl, 2 mM MgCl2, and 0.02% NaN3, pH 7.4). 35 μl of scintillation cocktail was added to each filter well and filters were counted on a Packard Topcount. Control dose-response curves were generated to GnRH (0.1 nM-100 nM) in each competition binding experiment. Ki values were calculated from IC50 values according to Cheng et al., Biochemical Pharmacol. 22: 3099-3108, 1973. [formula]

rat GnRH receptor = biological target: T3, rat GnRH receptor (Rattus norvegicus, UniProt P30969); assay: Radioligand binding: inhibition of 125I-GnRH-A binding to rat GnRH receptor (rat pituitary membranes); conditions: read-out: Ki (nM), Inhibition Binding of 125I-GnRH-A to GnRH Receptors
T3 construct: or rat pituitaries (Pel Freez Biologicals, Rogers, Ark.) were homogenized; tissue Pel Freez Biologicals; host or cells: rat pituitaries (membrane preparation)
T3 sequence (P30969 1-327): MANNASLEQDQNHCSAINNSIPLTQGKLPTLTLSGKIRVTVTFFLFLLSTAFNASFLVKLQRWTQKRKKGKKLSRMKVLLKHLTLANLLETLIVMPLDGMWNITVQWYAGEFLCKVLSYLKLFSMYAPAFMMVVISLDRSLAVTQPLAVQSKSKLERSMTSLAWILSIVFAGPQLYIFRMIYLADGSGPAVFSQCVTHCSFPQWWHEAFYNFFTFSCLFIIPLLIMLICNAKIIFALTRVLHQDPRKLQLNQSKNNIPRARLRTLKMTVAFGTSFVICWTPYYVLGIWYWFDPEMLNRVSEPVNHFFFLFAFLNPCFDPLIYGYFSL
Outline: as §1

[1] = In vitro metabolism: disappearance of parent compound in human liver microsomes; assay type: in vitro ADME; conditions: 5 uM compound, 0.5 mg/ml protein, 2 mM NADPH, 30 minutes 37° C.
Outline: (§2)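 Microsomes from human, rat (male, female), dog and monkey liver incubated with 5 uM compound, 0.5 mg/ml protein and 2 mM NADPH in 50 mM K phosphate, pH 7.4, for 30 min at 37° C. Reaction stopped with acetonitrile; parent compound remaining measured by LC-MS.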

[2] = In vitro metabolism: disappearance of parent compound in rat liver microsomes (male, female); assay type: in vitro ADME; conditions: 5 uM compound, 30 minutes 37° C.
Outline: as §2

[3] = In vitro metabolism: disappearance of parent compound in dog liver microsomes; assay type: in vitro ADME; conditions: 5 uM compound, 30 minutes 37° C.
Outline: as §2

[4] = In vitro metabolism: disappearance of parent compound in monkey liver microsomes; assay type: in vitro ADME; conditions: 5 uM compound, 30 minutes 37° C.
Outline: as §2

Rat plasma % remain = assay type: in vitro ADME
[5] = Solubility at pH2 and pH6; assay type: physicochemical
[6] = biological target: T4, GGH3 cells (GH3 cells stably transfected with the rat GnRH receptor) (Rattus norvegicus, UniProt P30969); assay: Effect of compounds on 125I-GnRH-A binding to GGH3 cells (competition radioligand binding, whole cells); conditions: on ice 2 hr
T4 construct: host or cells: GH3 cells stably transfected (GGH3), whole cells
T4 sequence (P30969 1-327): T3 sequence (P30969 1-327)
Method: Cell Culture. GGH3 cells (Dr. William Chin, Harvard Medical School, Boston, Mass.) are grown in low glucose Dulbecco's modified Eagle's medium (DMEM) containing 100 U/mL penicillin/streptomycin, 0.6 g/L G418 and 10% heat-inactivated FBS.
The reaction mixture is vortexed and incubated for 1 min at room temperature. Two; ml of 0.5 M acetic acid is added to the reaction tube and the mixture is added to a C18 Sep-Pak cartridge: The cartridge is washed with subsequent washes of 5 ml H2O and 5 ml 0.5M acetic acid and then eluted with 5×1 ml of 60% CH3CN/40% 0.5M acetic acid. The eluate is diluted with 3× volume of HPLC buffer A (0.1% TFA in H2O) and loaded onto a C18 column. The iodinated product is eluted over 20-25 min with a gradient of 25-100% CH3CN containing 0.1% TFA. The radioactive fractions (750 μl/fraction) are collected into clean polypropylene tubes containing 100 μl of 10% BSA. Fractions are assessed for biological activity by radioligand binding.
Reactions are performed on ice for 2 hr and stopped by the addition of 2 ml of ice-cold PBS wash buffer (50 mM NaPO4, 0.9% NaCl, 2 mM MgCl2, and 0.02% NaN3, pH 7.4) and rapid filtration onto GF/C filters presoaked with 0.05% polyethylenimine utilizing a Brandel cell harvester. Filters are counted on a gamma counter. […]

Ki (human GnRH receptors)	Ki (mouse GnRH receptors)	Ki (rat GnRH receptor)	Compound	ability to inhibit 125I-GnRH-A binding to GGH3 cells [6]	further results
4.7 nM	5.3 nM	14 nM	COc1nc(N2CCOCC2)nc(OC)c1NC(=O)c1ccc(Cc2cc3c(cc2C)C(C)(C)CCC3(C)C)o1 [Example B3, 5-(3,5,5,8,8-Pentamethyl-5,6,7,8-tetrahydro-naphthalen-2-ylmethyl)-furan-2-carboxylic Acid (4,6-dimethoxy-2-morpholin-4-yl-pyrimidin-5-yl)-amide]		
1.6 nM	1.7 nM	0.92 nM	COc1nc(NCCN2CCCC2)nc(OC)c1NC(=O)c1ccc(Cc2cc3c(cc2C)C(C)(C)OC3(C)C)o1 [Example D23, N-{4,6-Dimethoxy-2-[(2-pyrrolidin-1-ylethyl)amino]-pyrimidin-5-yl}-5-[(1,1,3,3,6-pentamethyl-1,3-dihydro-2-benzofuran-5-yl)methyl]-2-furamide Acetate]		

Continued, compound first:

Compound	Ki (human GnRH receptors)	Ki (mouse GnRH receptors)	Ki (rat GnRH receptor)	ability to inhibit 125I-GnRH-A binding to GGH3 cells [6]	further results
CNc1nc(OC)c(NC(=O)c2ccc(Cc3cc4c(cc3C)C(C)(C)CCC4(C)C)o2)c(OC)n1 [Example B1, 5-(3,5,5,8,8-Pentamethyl-5,6,7,8-tetrahydro-naphthalen-2-ylmethyl)-furan-2-carboxylic Acid (4,6-dimethoxy-2-methylamino-pyrimidin-5-yl)-amide]	1 nM	0.75 nM	0.79 nM		Human % rem. 30′ [1]: 54%; Fem. Rat (FR) % rem. 30′ ([2]; female rat liver microsomes): 94%; Male Rat (MR) % rem. 30′ ([2]; male rat liver microsomes): 1%; Dog % rem. 30′ [3]: 2%; Monkey % rem. [4]: 0%; Rat plasma % remain (Rat plasma % remain): 100%; solubility ([5]; pH 2, simulated gastric fluid, pH2, read-out: Solubility μg/ml pH2): 1.2 µg/mL (≈ 2.44 µM); solubility ([5]; pH 6, aqueous buffer, pH6, read-out: Solubility μg/ml pH6): 0.4 µg/mL (≈ 0.812 µM)
Ac-D-2-Nal-p-chloro-D-Phe-β-(3-pyridyl)-D-Ala-Ser-Lys(nicotinoyl)-D-Lys(nicotinoyl)-Leu-Lys(isopropyl)-Pro-D-Ala-NH2 [Antide]				blocked	
pGlu-His-Trp-Ser-Tyr-Gly-Leu-Arg-Pro-Gly-NH2 [GnRH]				blocked	
